# According to patent publication US12540143B2, “Methods and compositions for targeted protein degradation” (Ranok Therapeutics (Hangzhou) Co. Ltd., priority 2019, dated 2026):
# Counter-ions that a name gives are not always drawn. Like-named read-outs stand apart in the source and are kept apart here.
# Key:
# BRD4 = target: T1, BRD4 (Homo sapiens, UniProt O60885); experiment: BRD4 Degradation Flow Cytometry Assay in MV4-11 cells; type: cell-based; settings: MV4-11 cells; for Percentage BRD4 degradation vs untreated: 24 hr, highest degradation percentage observed at concentrations between 40-1000 nM
# T1 construct: endogenous in cells; host or cells: MV4-11
# Procedure: Protein Degradation Flow Cytometry
# MV4-11 cells were plated in a 24-well tissue culture plate at a density of 350,000 cells/450 μL/well and incubated in 37° C./5% CO2 for 1 hr. Cells were then treated with compounds at various concentrations and incubated in 37° C./5% CO2 for 24 hr. Cells were harvested, washed once, counted and 200 μL of 1% paraformaldehyde/PBS was added and incubated for 15 min at room temperature. 200 μL of 1×PBS/0.4% Triton X-100 was added and incubated for 15 min at 4° C. Cells were washed three times and resuspended in 50 μL of 1×PBS/0.2% Triton X-100. 2 μL/10^6 cells of anti-BRD4 antibody (ABCAM, #128874) was added and mixed by pipetting up and down. Cells were incubated for 30 min at room temperature in the dark, washed three times and resuspended in 50 μL of 1×PBS/0.2% Triton X-100. Goat anti-rabbit IgG H&L antibody (1:2000 dilution) was added and mixed by pipetting up and down and incubated for 30 min at room temperature in the dark. Finally, cells were washed three times and resuspended in 200 μL of PBS for flow cytometric analysis.
# MV4-11 cells = experiment: MV4-11 Cytotoxicity Assay; type: cell-based, human; settings: 72 hr, CCK-8, read-out: MV4-11 cytotoxicity
Percentage BRD4 degradation vs untreated (BRD4),SMILES,"IC50 (MV4-11 cells; Homo sapiens, MV4-11)",other results
B (10% < Degradation = 10-50%),"Cc1cc(-c2nnc(O)n2-c2ccc(CN3CCN(CC4CCN(C(=O)C[C@@H]5N=C(c6ccc(Cl)cc6)c6c(sc(C)c6C)-n6c(C)nnc65)CC4)CC3)cc2)c(O)cc1O [Compound 9, 2-((6S)-4-(4-chlorophenyl)-2,3,9-trimethyl-6H-thieno[3,2-f][1,2,4]triazolo[4,3-a][1,4]diazepin-6-yl)-1-(4-((4-(4-(3-(2,4-dihydroxy-5-methylphenyl)-5-hydroxy-4H-1,2,4-triazol-4-yl)benzyl)piperazin-1-yl)methyl)piperidin-1-yl)ethanone, trifluoroacetic acid]",< 100 nM,–
C (Degradation < 10%),"Cc1sc2c(c1C)C(c1ccc(Cl)cc1)=N[C@@H](CC(=O)NCCc1ccc(-n3c(O)nnc3-c3cc(C(C)C)c(O)cc3O)cc1)c1nnc(C)n1-2 [Compound 39, 2-((6S)-4-(4-chlorophenyl)-2,3,9-trimethyl-6H-thieno[3,2-f][1,2,4]triazolo[4,3-a][1,4]diazepin-6-yl)-N-(4-(3-(2,4-dihydroxy-5-isopropylphenyl)-5-hydroxy-4H-1,2,4-triazol-4-yl)phenethyl)acetamide]",< 100 nM,–
A (Degradation > 50%),"Cc1sc2c(c1C)C(c1ccc(Cl)cc1)=N[C@@H](CC(=O)NCC(=O)NCC1CCN(C(=O)C3CCN(Cc4ccc(-n5c(O)nnc5-c5cc(C(C)C)c(O)cc5O)cc4)CC3)CC1)c1nnc(C)n1-2 [Compound 46, (S)-2-(4-(4-chlorophenyl)-2,3,9-trimethyl-6H-thieno[3,2-f][1,2,4]triazolo[4,3-a][1,4]diazepin-6-yl)-N-(2-(((1-(1-(4-(3-(2,4-dihydroxy-5-isopropylphenyl)-5-hydroxy-4H-1,2,4-triazol-4-yl)benzyl)piperidine-4-carbonyl)piperidin-4-yl)methyl)amino)-2-oxoethyl)acetamide, trifluoroacetic acid]",< 100 nM,–
–,"Cc1sc2c(c1C)C(c1ccc(Cl)cc1)=N[C@@H](CC(=O)N1CCC(CN3CCN(Cc4ccc(-n5c(C(=O)NC(C)C)nnc5-c5ccc(O)cc5O)cc4)CC3)CC1)c1nnc(C)n1-2 [Compound 119, (S)-4-(4-((4-((1-(2-(4-(4-chlorophenyl)-2,3,9-trimethyl-6H-thieno[3,2-f][1,2,4]triazolo[4,3-a][1,4]diazepin-6-yl)acetyl)piperidin-4-yl)methyl)piperazin-1-yl)methyl)phenyl)-5-(2,4-dihydroxyphenyl)-N-isopropyl-4H-1,2,4-triazole-3-carboxamide, trifluoroacetic acid]",< 100 nM,–
–,"CCc1cc(-c2nnc(C(N)=O)n2-c2ccc(CN3CCN(CC4CCN(C(=O)C[C@@H]5N=C(c6ccc(Cl)cc6)c6c(sc(C)c6C)-n6c(C)nnc65)CC4)CC3)cc2)c(O)cc1O [Compound 120, (S)-4-(4-((4-((1-(2-(4-(4-chlorophenyl)-2,3,9-trimethyl-6H-thieno[3,2-f][1,2,4]triazolo[4,3-a][1,4]diazepin-6-yl)acetyl)piperidin-4-yl)methyl)piperazin-1-yl)methyl)phenyl)-5-(5-ethyl-2,4-dihydroxyphenyl)-4H-1,2,4-triazole-3-carboxamide hydrochloride]",–,IC50 (MV4-11 cells): < 100 nM
–,"CCc1cc(-c2nnc(C(N)=O)n2-c2ccc(CN3CCN(CC4CCN(C(=O)C[C@@H]5N=C(c6ccc(Cl)cc6)c6c(sc(C)c6C)-n6c(C)nnc65)CC4)CC3)cc2)c(O)cc1O [Compound 121, (S)-4-(4-((4-((1-(2-(4-(4-chlorophenyl)-2,3,9-trimethyl-6H-thieno[3,2-f][1,2,4]triazolo[4,3-a][1,4]diazepin-6-yl)acetyl)piperidin-4-yl)methyl)piperazin-1-yl)methyl)phenyl)-5-(5-ethyl-2,4-dihydroxyphenyl)-4H-1,2,4-triazole-3-carboxamide hydrochloride]",–,IC50 (MV4-11 cells): < 100 nM
–,"CCCc1cc(-c2nnc(C(=O)NCCN3CCCCC3)n2-c2ccc(CN3CCN(CC4CCN(C(=O)C[C@@H]5N=C(c6ccc(Cl)cc6)c6c(sc(C)c6C)-n6c(C)nnc65)CC4)CC3)cc2)c(O)cc1O [Compound 123, (S)-4-(4-((4-((1-(2-(4-(4-chlorophenyl)-2,3,9-trimethyl-6H-thieno[3,2-f][1,2,4]triazolo[4,3-a][1,4]diazepin-6-yl)acetyl)piperidin-4-yl)methyl)piperazin-1-yl)methyl)phenyl)-5-(2,4-dihydroxy-5-propylphenyl)-N-(2-(piperidin-1-yl)ethyl)-4H-1,2,4-triazole-3-carboxamide, trifluoroacetic acid]",< 100 nM,–
–,"Cc1cc(-c2nnc(C(=O)NCCN3CCCCC3)n2-c2ccc(CN3CCN(CC4CCN(C(=O)C[C@@H]5N=C(c6ccc(Cl)cc6)c6c(sc(C)c6C)-n6c(C)nnc65)CC4)CC3)cc2)c(O)cc1O [Compound 124, (S)-4-(4-((4-((1-(2-(4-(4-chlorophenyl)-2,3,9-trimethyl-6H-thieno[3,2-f][1,2,4]triazolo[4,3-a][1,4]diazepin-6-yl)acetyl)piperidin-4-yl)methyl)piperazin-1-yl)methyl)phenyl)-5-(2,4-dihydroxy-5-methylphenyl)-N-(2-(piperidin-1-yl)ethyl)-4H-1,2,4-triazole-3-carboxamide, trifluoroacetic acid]",< 100 nM,–
–,"CCNC(=O)c1noc(-c2cc(C(C)C)c(O)cc2O)c1-c1ccc(CN2CCN(CC3CCN(C(=O)C[C@@H]4N=C(c5ccc(Cl)cc5)c5c(sc(C)c5C)-n5c(C)nnc54)CC3)CC2)cc1 [Compound 126, (S)-4-(4-((4-((1-(2-(4-(4-chlorophenyl)-2,3,9-trimethyl-6H-thieno[3,2-f][1,2,4]triazolo[4,3-a][1,4]diazepin-6-yl)acetyl)piperidin-4-yl)methyl)piperazin-1-yl)methyl)phenyl)-5-(2,4-dihydroxy-5-isopropylphenyl)-N-ethylisoxazole-3-carboxamide hydrochloride]",< 100 nM,–
C (Degradation < 10%),"CC(=O)N1CCC(CN2CCN(Cc3ccc(-n4c(O)nnc4-c4cc(C(C)C)c(O)cc4O)cc3)CC2)CC1 [HSP90 binder, 1-(4-((4-(4-(3-(2,4-dihydroxy-5-isopropylphenyl)-5-hydroxy-4H-1,2,4-triazol-4-yl)benzyl)piperazin-1-yl)methyl)piperidin-1-yl)ethan-1-one, reference compound]",–,BRD4 degradation (in words) (BRD4; flow cytometry): no substantial BRD4 degradation was observed

SMILES,Percentage BRD4 degradation vs untreated (BRD4),"IC50 (MV4-11 cells; Homo sapiens, MV4-11)",other results
"CCc1cc(-c2nnc(O)n2-c2ccc(CN3CCN(CC4CCN(C(=O)C[C@@H]5N=C(c6ccc(Cl)cc6)c6c(sc(C)c6C)-n6c(C)nnc65)CC4)CC3)cc2)c(O)cc1O [Compound 1, 2-((6S)-4-(4-chlorophenyl)-2,3,9-trimethyl-6H-thieno[3,2-f][1,2,4]triazolo[4,3-a][1,4]diazepin-6-yl)-1-(4-((4-(4-(3-(5-ethyl-2,4-dihydroxyphenyl)-5-hydroxy-4H-1,2,4-triazol-4-yl)benzyl)piperazin-1-yl)methyl)piperidin-1-yl)ethanone]",A (Degradation > 50%),–,–
